Type in all cases: cell-based
For data set [1], the system named is HBV. Description: Anti-HBV activity in HepG2.2.15 stable transfected cell line, HBV DNA from secreted virions by realtime PCR. The note with it: Hepatitis B virus, read-out: HBV - HepG2.15.
Data set [2] relates to HBV. Description: Anti-HBV activity in HepG2.117 inducible HBV producing cell line (Tet-off), intracellular HBV DNA by realtime PCR. Particulars: Hepatitis B virus, read-out: HepG2 117 EC50.
Data set [3] can be described thus: Cytotoxicity in HepG2 cells, Resazurin assay. Particulars: human, 4 days incubation, Resazurin viability. How it is done: Cytotoxicity of the compounds was also tested using HepG2 cells, incubated for 4 days in the presence of compounds. The viability of the cells was assessed using a Resazurin assay.
Where [4] appears, read: 144 h, HepG2.2.15 cells, 6 days of treatment, HBV DNA from secreted virions.
Setting [5] is: 72 h, HepG2.117 cells, 3 days of treatment, intracellular HBV DNA.

Structures are written as SMILES.

The values below come from patent US9156839B2, “Fused bicyclic sulfamoyl derivatives and the use thereof as medicaments for the treatment of hepatitis B” (JANSSEN SCIENCES IRELAND UC, priority 2012, dated 2015).

Consider `Cc1cc(Nc2nn(C)c3ccc(S(=O)(=O)N[C@H]4CCOC4)cc23)ccc1F` [Compound 14], for which the EC50 turned out to be 1.1 µM in the data set on HBV [1] (setting [4]) and 8.5 µM in the data set on HBV [2] (setting [5]). The CC50 (usually the concentration giving 50% cytotoxicity) at 4 days in data set [3] was greater than 25 µM.
With `O=S(=O)(NC1CCCCC1)c1ccc2[nH]nc(Nc3ccc(F)cc3)c2c1` [Compound 3], the results for the EC50 in the data set with HBV [1] (setting [4]) and in the data set on HBV [2] (setting [5]) were 1 µM and 4.6 µM, respectively. Further, the CC50 at 4 days in data set [3] was greater than 25 µM.
For `CC(C)NS(=O)(=O)c1ccc2[nH]nc(Nc3ccc(F)c(F)c3)c2c1` [Compound 13] the same measures were 8.9 µM, greater than 25 µM and greater than 25 µM.
For `Cc1cc(Nc2nnc3ccc(S(=O)(=O)NC(C)C)cn23)ccc1F` [Compound 19] the same measures were 1.2 µM, 3.4 µM and greater than 25 µM.
For `O=S(=O)(N[C@H]1CCOC1)c1ccc2[nH]nc(Nc3ccc(F)c(F)c3)c2c1` [Compound 11] the same measures were 3.3 µM, 12.4 µM and greater than 25 µM.
As to `Cc1cc(Nc2n[nH]c3ccc(S(=O)(=O)N[C@H]4CCOC4)cc23)ccc1F` [Compound 12], the EC50 in the data set with HBV [1] (setting [4]) is 5.2 µM; in the data set with HBV [2] (setting [5]) it was greater than 25 µM. This molecule also had a CC50 at 4 days in data set [3] greater than 25 µM.
On to `O=S(=O)(NC1CCCCC1)c1ccc2onc(Nc3ccc(F)cc3)c2c1` [Compound 4], for which the EC50 in the data set on HBV [1] (HepG2.2.15, 144 h) came to 0.74 µM; in the data set with HBV [2] (HepG2.117, 72 h), 1.2 µM. Moreover, the CC50 at 4 days in data set [3] was greater than 25 µM.
With `O=S(=O)(NC1CCCC1)c1ccc2[nH]nc(Nc3ccc(F)cc3)c2c1` [Compound 5], the EC50 in the data set on HBV [1] (setting [4]) amounted to 1 µM; in the data set on HBV [2] (setting [5]) it was 1.8 µM. This molecule yielded a 50% cytotoxic concentration (CC50) at 4 days in data set [3] greater than 25 µM.
Take `Cn1nc(Nc2ccc(F)cc2)c2cc(S(=O)(=O)NC3CCCC3)ccc21` [Compound 6]: the EC50 in the data set on HBV [1] (setting [4]) worked out at 0.49 µM; in the data set with HBV [2] (setting [5]), 0.82 µM. Further, the CC50 at 4 days in data set [3] is greater than 25 µM.
For `CC(C)NS(=O)(=O)c1ccc2cnc(Nc3ccc(F)c(C(F)F)c3)n2c1` [Compound 17] the same measures were 0.56 µM, 14.2 µM and greater than 25 µM.
Turning to `CC(=O)n1nc(Nc2ccc(F)cc2)c2cc(S(=O)(=O)NC3CCCC3)ccc21` [Compound 9], the values for the EC50 in the data set with HBV [1] (setting [4]) and with HBV [2] (setting [5]) were greater than 50 µM and 18.4 µM, respectively. Further, the CC50 at 4 days in data set [3] was greater than 25 µM.
For `COC(=O)n1nc(Nc2ccc(F)cc2)c2cc(S(=O)(=O)NC3CCCC3)ccc21` [Compound 10], the EC50 was 46.5 µM with HBV [1] (setting [4]) and greater than 25 µM in the data set on HBV [2] (setting [5]). In data set [3], this molecule gave a CC50 at 4 days greater than 25 µM.
Take `Cn1nc(Nc2ccc(F)c(C(F)F)c2)c2cc(S(=O)(=O)N[C@H]3CCOC3)ccc21` [Compound 16]: the EC50 in the data set with HBV [1] (setting [4]) was found to be 1.3 µM; in the data set with HBV [2] (setting [5]), 4.5 µM. This molecule also registered a CC50 at 4 days in data set [3] greater than 25 µM.
For `CC(C)n1nc(Nc2ccc(F)cc2)c2cc(S(=O)(=O)NC3CCCC3)ccc21` [Compound 7] the same measures were greater than 50 µM, greater than 25 µM and greater than 25 µM.
In the case of `Cc1cc(Nc2ncc3ccc(S(=O)(=O)N[C@H]4CCOC4)cn23)ccc1F` [Compound 18], the results for the EC50 in the data set on HBV [1] (setting [4]) and with HBV [2] (setting [5]) were 1.7 µM and greater than 25 µM, respectively. Further, the CC50 at 4 days in data set [3] was greater than 25 µM.
Consider `CC(C)NS(=O)(=O)c1ccc2c(c1)c(Nc1ccc(F)c(C(F)F)c1)nn2C` [Compound 15], for which the figures for the EC50 with HBV [1] (setting [4]) and in the data set on HBV [2] (setting [5]) were 0.44 µM and 2.8 µM, respectively. In data set [3], this molecule displayed a CC50 at 4 days greater than 25 µM.
For `O=S(=O)(NC1CCCC1)c1ccc2c(c1)c(Nc1ccc(F)cc1)nn2C1CC1` [Compound 8] the same measures were 0.21 µM, 0.62 µM and greater than 25 µM.
